Measured values as given in patent US5354865A, “Phenylmethyl derivatives having lipoxygenase inhibitory activity” (Abbott Laboratories, priority 1992, dated 1994).

Molecular target: T1, 5-Lipoxygenase (Homo sapiens, UniProt P09917)
T1 construct: from tissue; host or cells: human heparinized whole blood (endogenous enzyme of its blood cells)
T1 sequence (P09917 1-674): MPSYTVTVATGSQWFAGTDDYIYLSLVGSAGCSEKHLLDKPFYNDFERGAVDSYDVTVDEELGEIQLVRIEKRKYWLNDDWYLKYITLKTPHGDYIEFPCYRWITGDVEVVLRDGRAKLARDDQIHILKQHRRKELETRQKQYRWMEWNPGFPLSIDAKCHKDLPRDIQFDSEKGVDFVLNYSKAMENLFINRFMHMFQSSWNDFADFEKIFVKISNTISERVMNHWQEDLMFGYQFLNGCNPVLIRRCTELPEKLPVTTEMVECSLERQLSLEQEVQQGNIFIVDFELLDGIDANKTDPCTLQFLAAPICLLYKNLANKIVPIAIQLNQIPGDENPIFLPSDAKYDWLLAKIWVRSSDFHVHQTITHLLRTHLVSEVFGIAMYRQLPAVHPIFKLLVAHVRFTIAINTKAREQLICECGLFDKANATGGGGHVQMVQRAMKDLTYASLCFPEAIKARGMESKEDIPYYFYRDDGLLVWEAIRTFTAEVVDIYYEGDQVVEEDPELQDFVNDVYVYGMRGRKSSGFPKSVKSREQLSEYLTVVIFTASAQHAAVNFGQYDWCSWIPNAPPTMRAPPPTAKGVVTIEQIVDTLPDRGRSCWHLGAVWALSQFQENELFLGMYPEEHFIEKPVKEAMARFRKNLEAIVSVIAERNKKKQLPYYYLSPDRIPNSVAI
Test: Inhibition of leukotriene biosynthesis: calcium ionophore A23187-induced LTB4 biosynthesis in human whole blood (RIA)
Type: cell-based
Settings: for IC50: human heparinized whole blood, 15 min preincubation at 37° C., A23187 8.3 μM, 30 min, LTB4 by RIA, read-out: In vitro inhibitory potency against 5-lipoxygenase from stimulated LTB4 formation in human whole blood, IC50
Description: Inhibition of leukotriene biosynthesis was evaluated in an assay, involving calcium ionophore-induced LTB4 biosynthesis expressed human whole blood. Human heparinized whole blood was preincubated with test compounds or vehicle for 15 min at 37° C. followed by calcium ionophore A23187 challenge (final concentration of 8.3 μM) and the reaction terminated after 30 min by adding two volumes of methanol containing prostaglandin B2 as an internal recovery standard. The methanol extract was analyzed for LTB4 using a commercially available radioimmunoassay.

[1] = human whole blood, A23187, read-out: Inhibition of stimulated LTB4 formation in human whole blood

Structure (SMILES) | IC50 [nM] | further results
OC(c1cccc(OCc2ccc3ccccc3c2)c1)C1CCOCC1 (centres unmarked) [Example 1, 4-[(3-(naphth-2-yl)methoxyphen-1-yl)hydroxymethyl]tetrahydropyran] | 3500 | 
COC(c1cccc(OCc2ccc3ccccc3c2)c1)C1CCOCC1 (centres unmarked) [Example 2, 4-[(3-(naphth-2-yl)methoxyphen-1-yl)methoxymethyl]tetrahydropyran] | 730 | 
NN=C(c1cccc(OCc2ccc3ccccc3c2)c1)C1CCOCC1 [Example 6] | 2400 | 
CON=C(c1cccc(OCc2ccc3ccccc3c2)c1)C1CCOCC1 [Example 7, E- and Z-O-methyl-4-[(3-(naphth-2-yl)methoxyphen-1-yl)oximinomethyl]tetrahydropyran] |  | inhibition at 0.39 µM [1]: 68%
COC(c1cccc(OCc2ccc3c(ccc(=O)n3C)c2)c1)C1CCOCC1 (centres unmarked) [Example 9, 4-[(3-(1,2-dihydro-1-methyl-2-oxoquinolin-6-yl)methyloxyphen-1-yl)methoxymethyl]tetrahydropyran] | 710 | 
COCOC(c1cccc(OCc2ccc3c(ccc(=O)n3C)c2)c1)C1CCOCC1 (centres unmarked) [Example 10, 4-[(3-((1,2-dihydro-1-methyl-2-oxoquinolin-6-yl)methoxy)phen-1-yl)methoxymethoxymethyl]tetrahydropyran] | 940 | 
Cn1c(=O)ccc2cc(COc3cccc(C(=NO)C4CCOCC4)c3)ccc21 [Example 11, E- and Z-4-[(3-((1,2-dihydro-1-methyl-2-oxoquinolin-6-yl)methoxy)phen-1-yl)oximinomethyl]tetrahydropyran] |  | inhibition at 0.39 µM [1]: 73%
CON=C(c1cccc(OCc2ccc3c(ccc(=O)n3C)c2)c1)C1CCOCC1 [Example 12, E- and Z-O-Methyl-4-[(3-((1,2-dihydro-1-methyl-2-oxoquinolin-6-yl)methoxy)phen-1-yl)oximinomethyl]tetrahydropyran] |  | inhibition at 0.78 µM [1]: 99%
CON=C(c1cc(F)cc(OCc2ccc3c(ccc(=O)n3C)c2)c1)C1CCOCC1 [Example 15, E- and Z-O-methyl-[(3-((1,2-dihydro-1-methyl-2-oxoquinolin-6-yl)methoxy)-5-fluorophen-1-yl)oximinomethyl]tetrahydropyran] |  | inhibition at 0.2 µM (@ 0.20 μM, human whole blood, A23187, read-out: Inhibition of stimulated LTB4 formation in human whole blood): 99.6%
Cn1c(=O)ccc2cc(COc3cc(F)cc(C(=NO)C4CCOCC4)c3)ccc21 [Example 16, E- and Z-4-[(3-((1,2-dihydro-1-methyl-2-oxoquinolin-6-yl)methoxy)-5-fluorophen-1-yl) oximinomethyl]tetrahydropyran] |  | inhibition at 0.78 µM [1]: 98%

More lines, main results first:

IC50 [nM] | Structure (SMILES) | further results
830 | CCON=C(c1cccc(OCc2ccc3c(ccc(=O)n3C)c2)c1)C1CCOCC1 [Example 13, E- and Z-O-Ethyl-4-[(3-((1,2-dihydro-1-methyl-2-oxoquinolin-6-yl)methoxy)phen-1-yl)oximinomethyl]tetrahydropyran] | 
2000 | COC1(Cc2cccc(OCc3ccc4ccccc4c3)c2)CCOCC1 [Example 14, 4-methoxy-4-[(3-((naphth-2-yl)methoxy)phen-1-yl)methyl]tetrahydropyran] | 
2900 | CON=C(c1cc(F)cc(OCc2ccc3ccccc3c2)c1)C1(C)COC1 [Example 17, E- and Z-O-methyl-3-methyl-3-[(3-((naphth-2-yl)methoxy)-5-fluorophen-1-yl)oximinomethyl]oxetane] | 
5200 | CC1(C(=NO)c2cc(F)cc(OCc3ccc4ccccc4c3)c2)COC1 [Example 18, E- and Z-3-methyl-3-[(3-((naphth-2-yl)methoxy)-5-fluorophen-1-yl)oximinomethyl]oxetane] | 
